Here are results for 1 compound from patent US20260125356A1, “TREATMENT OF LEISHMANIASIS” (THE UNIVERSITY OF DURHAM, priority 2022, published 2026).

Series [1] concerns L. donovani promastigotes. As to the kind of experiment: L. donovani promastigote dose response assay (resazurin). It counts as cell-based. The note with it: Leishmania donovani, 72 h, read-out: EC50 (L. don)/μM. Background: Alamar Blue is a resazurin reagent that responds to reducing activity.
The test system of series [2] is wild-type E. coli (BW25113). Put plainly: Antibacterial MIC/growth assay, wild-type E. coli. It counts as cell-based. The conditions noted are these: 7.8 to 500 μM, 16 hours at 37° C. On the procedure:
(§1) DMSO was used as a solvent control at a maximum final concentration of 10% (a greater percentage than would be achieved using the compounds at the concentrations in question). Plates were incubated at 37° C. with shaking for 16 hours before measuring absorbance at 600 nm. These values were then used to calculate percentage growth at each dilution of compound in comparison to growth in the absence of compound. The following day, the contents of each well were resuspended using a multichannel pipette, and 5 μl from each well was then applied to LB agar plates. These were incubated at 30° C. in a stationary incubator for 16 hours before imaging.

The subject of series [3] is L. amazonensis intracellular amastigotes. Put plainly: Killing of intracellular amastigotes in infected peritoneal macrophages. The note with it: Leishmania amazonensis, Peritoneal macrophage, treated 48 h, read-out: EC50 (amastigote). It counts as cell-based. On the procedure: Peritoneal macrophages were plated at 2×10^5/well in 24 well-plate onto circular glass coverslips with medium RPMI+10% HIFCS. After 24 h, macrophages were infected with L. amazonensis (1:10) and cultured at 37″C for 4 h and washed to remove non internalized amastigotes. At 24 h post infection, cells were treated with serial dilutions of compound 53 or Pentostam for 48 h at 37° C. in medium RPMI+5% HIFCS. Afterwards, cells were stained with Rapid Panoptic and the number of intracellular amastigotes in 100 macrophages was counted. EC50 values were calculated by non-linear regression. Means±SD (n=2);
The ability of compound 53 to kill intracellular amastigotes for cells infected with L. amazonensis was assessed and the cytotoxicity of the compound was investigated. The results are shown in FIGS. 6 to 8 and Table 8 below.

Another series deals with L. amazonensis-GFP. Put plainly: In vivo intralesional treatment of L. amazonensis-GFP (mouse ear). The conditions noted are these: 0.4 mg in 10 μL PBS, once a week for five weeks. On the procedure:
FIG. 12 evaluation of the parasitic load of intralesional treatment of L. amazonensis-GFP (mouse ear) after treatment with PBS, glucantime, compound 53 (VJL), clemastine fumarate (CF) or clemastine fumarate in a polymeric nanoparticle (NP-CF);
Mice were infected with L. amazonensis and were then treated intralesionally (IL) with five doses of 10 μL PBS only (control) or 10 μL of PBS containing 0.4 mg of glucantime, compound 53 (VJL), clemastine fumarate (CF) or clemastine fumarate in a polymeric nanoparticle (NP-CF). The mice were treated once a week for five weeks.

Another series has as its system T. cruzi epimastigotes. As to the kind of experiment: T. cruzi epimastigote dose response assay. In kind it is cell-based. The conditions noted are these: Trypanosoma cruzi, 72 h, read-out: EC50 (T. cruzi)/μM.
Another series concerns ΔrfaC mutant E. coli. As to the kind of experiment: Antibacterial MIC/growth assay, ΔrfaC mutant E. coli. In kind it is cell-based. The note with it: 7.8 to 500 μM, 16 hours at 37° C. On the procedure: as §1
Another series relates to S. aureus (FDA209P). Put plainly: Antibacterial MIC/growth assay, S. aureus. It counts as cell-based. The conditions noted are these: 16 hours at 37° C., absorbance 600 nm. On the procedure:
as §1

A further series in a line: Kinetic solubility. The note with it: kinetic from dmso stock. From the text: All chemicals and solvents were sourced from commercial suppliers. Buffers were made up using purified water from a MilliQ® water purification system. Biorelevant buffers (FESSIF, FASSIF and FASSGF) were purchased from Biorelevant and made up according to manufacturer's instructions. 15% FBS (heat inactivated, South American origin, ThermoFisher scientific) in PBS (Fisher Scientific) was filter sterilised (0.22 μm Fisherbrand™ Sterile PES Syringe Filter, Fisher Scientific) before use. Sodium taurocholate was purchased from Merck.
λmax was determined for each compound from the UV-Vis absorption spectrum of a 200 LIM compound solution in buffer of interest using a Varian Cary® 100 UV-Vis Spectrophotometer. A calibration curve of λmax VS concentration was obtained by serial dilution of compound from 200 μM in the buffer of interest, correcting for background buffer absorption. For each sample, a DMSO solution of compound was incubated in buffer of interest (<5% DMSO) for 2 hrs at RT. The solution was filtered (0.22 μm Fisherbrand™ Sterile PES Syringe Filter, Fisher Scientific) or centrifuged (14,500 rpm, 10 min) to remove undissolved debris and the supernatant was removed and diluted as required. The corrected UV absorption of the supernatant at Amax Was measured using a Varian Cary® 100 UV-Vis Spectrophotometer and compared to the calibration curve to determine compound solubility.

The test system of a further series is visceral leishmaniasis. Put plainly: In vivo efficacy against experimental visceral leishmaniasis. The note with it: single dose 10 mg/kg, BALB/c mice. The text has this: FIG. 9 evaluation of efficacy against visceral leishmaniasis in BALB/c mice in (A) the liver and (B) the spleen through Leishman donovani units (LDU) (n=4);
FIG. 10 evaluation of efficacy against visceral leishmaniasis in BALB/c mice in bone marrow (n=4);
FIG. 11 evaluation of efficacy against visceral leishmaniasis in BALB/c mice in (A) the liver and (B) the spleen through Limiting Dilution Assay (LDA) (n=4);
Mice were infected with 2×10^7 promastigotes and kept for 2 months. After 2 months mice were treated with a single dose of phosphate-buffered saline (PBS), an empty liposome formulation (E.Lip), 10 mg/kg of body weight of Drug 3R, 10 mg/kg of body weight of compound 53 (identified in the Figures as drug 10), a liposome composition comprising 10 mg/kg of body weight of Drug 3R (Lip Drug 3R) or a liposome composition comprising 10 mg/kg of body weight of compound 53 (Lip Drug 10). […] The mice were then kept for one month and then sacrificed. Infection in liver and spleen was determined through LDU and LDA (FIGS. 9 and 11), infection in bone marrow was determined by counting amastigotes/1000 cells (FIG. 10).
Liposomal compositions were prepared by incorporation of an active compound into the lipid bilayer of SA-bearing choline liposome (lipid ratio, 7:2). […]

The test system of series [4] is T. brucei bloodstream trypomastigotes. As to the kind of experiment: T. brucei bloodstream trypomastigote dose response assay. In kind it is cell-based. The note with it: Trypanosoma brucei, 48 h, read-out: EC50 (T. brucei)/μM.
The nature of series [5]: Cytotoxicity against macrophages (resazurin). In kind it is cell-based. The conditions noted are these: mouse, bone marrow-derived macrophages (BMDM), read-out: CC50 (macrophage). On the procedure: Mouse bone marrow-derived macrophages (BMDM) were plated in 96 well-plate at 1×10^5/well with medium RPMI+10% HIFCS. After 24 h, compound 53 and Pentostam were added at the indicated concentrations, and cells cultured for further 48 h with medium RPMI+5% HIFCS. […] Pentostam CC50 was from curve regression extrapolation. Means±SD (n=5);
The selectivity index (SI) was calculated by dividing the half maximal cytotoxic concentration (CC50) by the half maximal effective concentration (EC50). CC50 was extrapolated for pentostam.

SMILES strings stand for the structures. Values after ≈ are worked out from the molar mass of the structure shown.

By solubility is commonly meant the dissolved amount per volume that the medium holds. The low end stands for little dissolved substance, the high end for much dissolved substance. Broadly, the CC50 is the concentration at which the toxic effect on the cells reaches its halfway point. For the compound `CNC(=O)c1ccc(OCCCN2CCOCC2)cc1NC(=O)c1ccc([N+](=O)[O-])s1` [Compound 53, N-[2-(methylcarbamoyl)-5-[3″-(morpholin-4′″-yl)propoxy]phenyl]-5′-nitrothiophene-2′-carboxamide], the EC50 is 0.044 µM in [1], 0.6 ± 0.2 µg/mL (≈ 1.34 µM) in series [3], 3.8 ± 0.5 µM with T. cruzi epimastigotes and 0.29 ± 0.1 µM in [4]. Also, the “inhibition of growth of wild-type E. coli” value in series [2] was “little effect”. In addition, the “parasitic load after intralesional treatment” value in the series on L. amazonensis-GFP is “effective treatment”. In addition, the “inhibition of growth of ΔrfaC mutant E. coli” value in the series with ΔrfaC mutant E. coli is recorded as “some reasonable activity”. Besides, the “inhibition of growth of S. aureus” value in the series with S. aureus (FDA209P) was “effective at inhibiting the bacteria at low concentrations”. Moreover, the solubility at 2 h in “Kinetic solubility” (FASSGF, fassgf or other biorelevant) was above 8000 µM; in the series “Kinetic solubility” (FASSIF), 359 µM (≈ 161 µg/mL); in “Kinetic solubility” (FESSIF) it was 4700 µM (≈ 2110 µg/mL); in the series “Kinetic solubility” (PBS, aqueous buffer), 29 µM (≈ 13 µg/mL). The “antileishmanial effect in vivo (liver, spleen, bone marrow infection)” value in the series with visceral leishmaniasis (compound alone) was “reasonable antileishmanial effect”. Further, in the series on visceral leishmaniasis (delivered (iv) in a liposomal formulation), the “antileishmanial effect in vivo (liver, spleen, bone marrow infection), liposomal formulation” value is “very effective clearance”. In addition, the 50% cytotoxic concentration (CC50) at 48 h in series [5] came to 16 ± 1 µg/mL (≈ 35.7 µM).
